Measured values as given in paper PMC5420329 (Journal of medicinal chemistry, 2015).
Where two headings read alike, the source gives them in different places.

Assays:
zinc metalloproteinases = assay: Selectivity testing against extended panel of zinc metalloproteinases; format: biochemical; conditions: ADAM17 versus five other metzincins
CXCL16 = CXCL16 shedding inhibition in HTSMC; format: cell-based, human; conditions: for CXCL16 shedding inhibition: HTSMC, 10 μM; for inhibition at 10 µM: Homo sapiens, read-out: CXCL16 shedding inhibition
Heregulin = assay: Inhibition of heregulin shedding in A549 cells; format: cell-based; conditions: for inhibition at 40 µM: Homo sapiens, A549, read-out: Heregulin shedding inhibition
TGFα = assay: Inhibition of TGFα shedding in A549 cells; format: cell-based; conditions: for inhibition at 40 µM: Homo sapiens, A549, read-out: TGFα shedding inhibition
betacellulin = assay: Inhibition of betacellulin shedding in A549 cells; format: cell-based; conditions: for inhibition at 40 µM: Homo sapiens, A549, read-out: BTC (betacellulin) shedding inhibition
ADAM10 = ADAM10 (Homo sapiens, UniProt O14672); assay: ADAM10 glycosylated substrate assay; format: biochemical
A549 cells [1] = assay: CellTiter Glo cell viability assay; format: cell-based; conditions: 72 h, up to 33 μM
HEPG2 cells = assay: CellTiter Glo cell viability assay; format: cell-based; conditions: 72 h, up to 33 μM
MDA-MB-231 cells = assay: CellTiter Glo cell viability assay; format: cell-based; conditions: 72 h, up to 33 μM
L622D-PTK7 = assay: Inhibition of PTK7 shedding in HT1080-L622D cells; format: cell-based, human
wtPTK7 = assay: Inhibition of PTK7 shedding in SW480 cells; format: cell-based
HT1080 cells [2] = assay: Transwell invasion assay; format: cell-based, human; conditions: Matrigel
Notch = conditions: SKMEL-28, 25 μM; ref Personal communication from Dr. Kaushik (Kansas University Medical Center); cited from earlier work
A549 cells [3] = assay: Synergy studies, A549 viability assay
ADAM17 = ADAM17 (Homo sapiens, UniProt P78536); assay: ADAM17 glycosylated substrate assay; format: biochemical
MMP2 = MMP2 (Homo sapiens, UniProt P08253); assay: MMP assay; format: biochemical
MMP8 = MMP8 (Homo sapiens, UniProt P22894); assay: MMP assay; format: biochemical
MMP9 = MMP9 (Homo sapiens, UniProt P14780); assay: MMP assay; format: biochemical
MMP14 = MMP14 (Homo sapiens, UniProt P50281); assay: MMP assay; format: biochemical
TNFα = assay: Inhibition of TNFα shedding in THP-1 cells; format: cell-based; conditions: Homo sapiens, THP-1, read-out: TNFα shedding inhibition
PTK7 = conditions: cited from earlier work
HT1080 cells [4] = conditions: cited from earlier work
[5] = system: EGFR ligand (heregulin, TGFα, HB-EGF, amphiregulin, and EGF); conditions: cited from earlier work

ADAM17, sequence (P78536 215-824): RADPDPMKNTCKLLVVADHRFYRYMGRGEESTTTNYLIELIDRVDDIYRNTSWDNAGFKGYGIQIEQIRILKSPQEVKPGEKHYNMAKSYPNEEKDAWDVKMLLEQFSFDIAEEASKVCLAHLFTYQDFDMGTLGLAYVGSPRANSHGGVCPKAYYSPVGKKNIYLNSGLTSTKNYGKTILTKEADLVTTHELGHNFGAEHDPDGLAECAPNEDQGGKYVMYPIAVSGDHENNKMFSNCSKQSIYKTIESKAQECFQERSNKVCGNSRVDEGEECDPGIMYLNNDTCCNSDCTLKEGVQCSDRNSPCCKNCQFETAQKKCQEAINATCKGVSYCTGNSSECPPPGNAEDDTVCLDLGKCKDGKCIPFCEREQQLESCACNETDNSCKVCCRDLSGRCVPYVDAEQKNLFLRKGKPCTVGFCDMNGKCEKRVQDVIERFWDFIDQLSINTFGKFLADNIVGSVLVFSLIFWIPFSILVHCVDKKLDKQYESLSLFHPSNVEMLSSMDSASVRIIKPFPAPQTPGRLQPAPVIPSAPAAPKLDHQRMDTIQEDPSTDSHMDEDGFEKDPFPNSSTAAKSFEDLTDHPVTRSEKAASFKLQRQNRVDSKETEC
ADAM10, sequence (O14672 214-748): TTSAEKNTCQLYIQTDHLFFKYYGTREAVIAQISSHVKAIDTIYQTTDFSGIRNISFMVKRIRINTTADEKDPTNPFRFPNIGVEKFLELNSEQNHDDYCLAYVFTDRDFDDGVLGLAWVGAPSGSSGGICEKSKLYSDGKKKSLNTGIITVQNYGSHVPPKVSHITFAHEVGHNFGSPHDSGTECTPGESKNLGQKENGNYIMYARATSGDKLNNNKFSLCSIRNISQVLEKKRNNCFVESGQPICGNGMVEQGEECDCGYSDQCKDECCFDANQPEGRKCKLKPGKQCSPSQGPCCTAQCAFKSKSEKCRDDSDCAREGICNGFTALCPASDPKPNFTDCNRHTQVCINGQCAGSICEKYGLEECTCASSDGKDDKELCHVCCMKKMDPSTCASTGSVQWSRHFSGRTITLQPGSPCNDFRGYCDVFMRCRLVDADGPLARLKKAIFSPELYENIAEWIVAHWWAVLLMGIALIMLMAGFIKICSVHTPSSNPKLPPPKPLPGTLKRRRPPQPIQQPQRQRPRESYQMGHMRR
MMP2, sequence (P08253 110-660, species assumed): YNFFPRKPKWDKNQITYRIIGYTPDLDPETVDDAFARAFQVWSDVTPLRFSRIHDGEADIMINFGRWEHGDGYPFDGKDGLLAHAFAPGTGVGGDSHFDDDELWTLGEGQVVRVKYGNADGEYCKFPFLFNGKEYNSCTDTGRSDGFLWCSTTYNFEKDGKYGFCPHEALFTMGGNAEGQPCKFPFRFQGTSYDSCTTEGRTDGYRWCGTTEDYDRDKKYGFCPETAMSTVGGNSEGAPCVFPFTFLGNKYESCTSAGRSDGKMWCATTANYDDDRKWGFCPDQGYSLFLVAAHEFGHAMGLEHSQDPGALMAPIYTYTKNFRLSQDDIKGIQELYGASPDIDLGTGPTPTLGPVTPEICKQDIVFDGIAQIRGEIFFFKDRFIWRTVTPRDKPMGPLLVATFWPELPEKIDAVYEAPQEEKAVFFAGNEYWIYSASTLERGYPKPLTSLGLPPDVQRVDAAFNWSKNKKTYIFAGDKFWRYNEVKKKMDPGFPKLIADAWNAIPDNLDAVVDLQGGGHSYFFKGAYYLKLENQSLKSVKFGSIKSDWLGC
MMP9, sequence (P14780 94-707, species assumed): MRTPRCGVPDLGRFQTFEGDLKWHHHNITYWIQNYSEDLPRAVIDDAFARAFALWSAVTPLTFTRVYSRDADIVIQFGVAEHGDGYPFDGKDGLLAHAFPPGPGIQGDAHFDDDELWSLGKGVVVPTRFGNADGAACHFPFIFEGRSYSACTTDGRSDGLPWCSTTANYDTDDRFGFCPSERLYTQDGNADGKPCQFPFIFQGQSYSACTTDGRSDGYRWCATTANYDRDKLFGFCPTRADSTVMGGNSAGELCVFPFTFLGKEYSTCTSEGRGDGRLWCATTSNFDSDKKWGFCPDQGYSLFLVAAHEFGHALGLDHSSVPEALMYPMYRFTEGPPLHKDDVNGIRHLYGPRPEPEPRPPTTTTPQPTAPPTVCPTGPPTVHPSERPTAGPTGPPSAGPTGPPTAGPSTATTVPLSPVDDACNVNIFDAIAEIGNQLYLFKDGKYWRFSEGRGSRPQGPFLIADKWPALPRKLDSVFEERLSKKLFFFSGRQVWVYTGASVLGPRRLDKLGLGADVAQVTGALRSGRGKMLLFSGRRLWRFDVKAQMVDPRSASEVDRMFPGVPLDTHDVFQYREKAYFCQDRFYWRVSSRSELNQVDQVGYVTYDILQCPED
MMP8, sequence (P22894 101-467, species assumed): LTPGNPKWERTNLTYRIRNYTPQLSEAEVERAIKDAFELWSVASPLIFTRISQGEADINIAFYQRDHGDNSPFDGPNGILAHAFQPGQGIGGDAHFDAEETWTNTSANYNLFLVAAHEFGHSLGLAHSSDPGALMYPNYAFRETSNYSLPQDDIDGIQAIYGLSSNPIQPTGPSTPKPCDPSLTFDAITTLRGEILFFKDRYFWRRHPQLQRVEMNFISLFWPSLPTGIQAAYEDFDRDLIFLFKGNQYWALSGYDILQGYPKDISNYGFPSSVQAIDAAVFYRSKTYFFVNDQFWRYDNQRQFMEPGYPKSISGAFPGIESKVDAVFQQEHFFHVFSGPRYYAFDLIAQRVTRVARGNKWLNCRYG

| SMILES | selectivity profile (zinc metalloproteinases) | CXCL16 shedding inhibition (CXCL16) | inhibition at 10 µM (CXCL16) [%] | inhibition at 40 µM (Heregulin) [%] | inhibition at 40 µM (TGFα) [%] | inhibition at 40 µM (betacellulin) [%] | viability of HEPG2 cells (HEPG2 cells) | viability of MDA-MB-231 cells (MDA-MB-231 cells) | other results |
| --- | --- | --- | --- | --- | --- | --- | --- | --- | --- |
| CCCC[C@H]1CN([C@@H](Cc2ccc(O)cc2)CN2CCC[C@H]2CN2C(=O)C(=O)NC[C@H]2Cc2ccc3ccccc3c2)C(=O)C(=O)N1CCC12CC3CC(CC(C3)C1)C2 [Compound 16, (S)-4-(2-(Adamantan-1-yl)ethyl)-5-butyl-1-((S)-1-(4-hydroxyphenyl)-3-((S)-2-(((R)-6-(naphthalen-2-ylmethyl)-2,3-dioxopiperazin-1-yl)methyl)pyrrolidin-1-yl)propan-2-yl)piperazine-2,3-dione] | inhibiting only ADAM17 | did not inhibit | 0 | 0 | 0 | 0 | – | – | – |
| O=C1NC[C@@H](Cc2ccc(O)cc2)N(C[C@@H]2CCCN2C[C@@H](Cc2ccc3ccccc3c2)N2C[C@H](Cc3ccc(O)cc3)N(CCC34CC5CC(CC(C5)C3)C4)C(=O)C2=O)C1=O [Compound 17, (5R)-4-(2-((1R,3R)-Adamantan-1-yl)ethyl)-5-(4-hydroxybenzyl)-1-((2R)-1-(2-(((R)-6-(4-hydroxybenzyl)-2,3-dioxopiperazin-1-yl)-methyl)pyrrolidin-1-yl)-3-(naphthalen-2-yl)propan-2-yl)piperazine-2,3-dione] | – | did not inhibit | 0 | 100 | 0 | 0 | did not inhibit viability | did not inhibit viability | ADAM10 IC50 (ADAM10; Table 4 selectivity panel): did not inhibit; viability of A549 cells (A549 cells [1]): no intrinsic activity; PTK7 shedding inhibition (L622D-PTK7; HT1080 (L622D-PTK7), PMA, 25–100 μM): 25–50%; shedding of L622D-PTK7 (L622D-PTK7; HT1080-L622D, PMA stimulated, 50 and 100 μM): inhibited shedding; PTK7 shedding inhibition (wtPTK7; SW480 (wtPTK7), PMA, 25–100 μM): 0–82%; shedding of wtPTK-7 (wtPTK7; SW480, PMA stimulated, 50 and 100 μM): inhibited shedding; invasion of HT1080 cells (HT1080 cells [2]): dose-dependent inhibition of invasion; Heregulin shedding inhibition (Heregulin; A549, PMA, 40 μM): completely inhibited shedding; shedding of TGFα (TGFα; A549, up to 100 μM): did not affect shedding; Notch shedding inhibition (Notch): 0%; potentiation of gefitinib activity against A549 cells (A549 cells [3]; 40 μM compound 17): potentiated gefitinib activity; potentiation of doxorubicin activity (A549 cells [3]; A549, 40 μM compound 17): did not potentiate the activity; potentiation of etoposide activity (A549 cells [3]; A549, 40 μM compound 17): did not potentiate the activity |
| O=C1NC[C@H](Cc2ccccc2)N(C[C@@H]2CCCN2C[C@@H](CC2CCCCC2)N2C[C@H](Cc3ccc(O)cc3)N(CCc3ccccc3)C(=O)C2=O)C1=O [Compound 18, (S)-1((R)-1((S)-2-(((S)-6-Benzyl-2,3-dioxopiperazin-1-yl)methyl)-pyrrolidin-1-yl)-3-cyclohexylpropan-2-yl)-5-(4-hydroxybenzyl)-4-phenethylpiperazine-2,3-dione] | – | did not inhibit | 0 | 0 | 0 | 0 | did not inhibit viability | did not inhibit viability | – |
| O=C1NC[C@H](Cc2ccccc2)N(C[C@@H]2CCCN2C[C@H](Cc2ccccc2)N2C[C@H](Cc3ccc(O)cc3)N(CCC34CC5CC(CC(C5)C3)C4)C(=O)C2=O)C1=O [Compound 20, (S)-4-(2-(Adamantan-1yl)ethyl)-1-((S)-1-((S)-2-(((S)-6-benzyl-2,3-dioxopiperazin-1-yl)methyl)pyrrolidin-1-yl)-3-phenylpropan-2-yl)-5-(4-hydroxybenzyl)piperazine-2,3-dione] | inhibiting only ADAM17 | did not inhibit | 0 | 0 | 0 | 0 | did not inhibit viability | did not inhibit viability | – |
| O=C1NC[C@H](Cc2ccccc2)N(C[C@@H]2CCCN2C[C@@H](CC2CCCCC2)N2C[C@H](Cc3ccccc3)N(CCc3ccccc3)C(=O)C2=O)C1=O [Compound 21, (S)-5-Benzyl-1-((R)-1-((S)-2-(((S)-6-benzyl-2,3-dioxopiperazin-1-yl)methyl)pyrrolidin-1-yl)-3-cyclohexylpropan-2-yl)-4-phenethylpiperazine-2,3-dione] | inhibiting only ADAM17 | – | – | – | 0 | 0 | – | – | IC50 (ADAM17): 8.5 µM; inhibition at 100 µM (ADAM17; read-out: ADAM17 %inhibition at 100 μM): 100%; IC50 (ADAM10): > 100 µM; IC50 (MMP2): > 100 µM; IC50 (MMP8): > 100 µM; IC50 (MMP9): > 100 µM; IC50 (MMP14): > 100 µM; inhibition at 25 µM (TNFα): 0% |
| COC(=O)N1CC2(CC2)C[C@H](C(=O)NO)[C@H]1C(=O)N1CC=C(c2ccccc2)CC1 [INCB3619] | – | – | – | – | – | – | – | – | shedding of PTK7 (PTK7): able to inhibit; invasion of HT1080 cells (HT1080 cells [4]): able to inhibit; heregulin shedding in A549 cells [5]: abrogation of heregulin shedding |
| CNC(=O)[C@@H](NC(=O)[C@H](CC(C)C)[C@H](O)C(=O)NO)C(C)(C)C [Marimastat, (2S,3R)-N4-[(1S)-2,2-dimethyl-1-[(methylamino)carbonyl]propyl]-N1,2-dihydroxy-3-(2-methylpropyl)butanediamide, reference compound] | – | – | – | – | – | – | – | – | soluble TGFα in supernatant (TGFα; A549, PMA, 10 μM): decreased soluble TGFα in the supernatant of A549 cells to the level of non-PMA-treated control; betacellulin shedding inhibition (betacellulin; A549, 10 μM): almost complete inhibition; shedding of EGFR ligands (heregulin, TGFα, HB-EGF, amphiregulin, EGF) ([5]; A549 cells): inhibited shedding of each tested EGFR ligand |
